Where two headings read alike, the source gives them in different places.
What was measured:
[1] = system: maximal electroshock seizure (generalized tonic-clonic seizures); test: Maximal Electroshock Seizure; assay type: in vivo, mice; details: i.p.; for protection in the MES test in mice at 100 mg/kg (in words) / MES protection, animals protected/animals tested at 0.5 h: mice; for MES protection, animals protected/animals tested at 0.5 h: 100 mg/kg (stated for 19 and 20)
human Nav1.2 [2] = biological target: T1, human Nav1.2 (Homo sapiens, UniProt Q99250); assay type: cell-based
T1 sequence (Q99250 whole entry): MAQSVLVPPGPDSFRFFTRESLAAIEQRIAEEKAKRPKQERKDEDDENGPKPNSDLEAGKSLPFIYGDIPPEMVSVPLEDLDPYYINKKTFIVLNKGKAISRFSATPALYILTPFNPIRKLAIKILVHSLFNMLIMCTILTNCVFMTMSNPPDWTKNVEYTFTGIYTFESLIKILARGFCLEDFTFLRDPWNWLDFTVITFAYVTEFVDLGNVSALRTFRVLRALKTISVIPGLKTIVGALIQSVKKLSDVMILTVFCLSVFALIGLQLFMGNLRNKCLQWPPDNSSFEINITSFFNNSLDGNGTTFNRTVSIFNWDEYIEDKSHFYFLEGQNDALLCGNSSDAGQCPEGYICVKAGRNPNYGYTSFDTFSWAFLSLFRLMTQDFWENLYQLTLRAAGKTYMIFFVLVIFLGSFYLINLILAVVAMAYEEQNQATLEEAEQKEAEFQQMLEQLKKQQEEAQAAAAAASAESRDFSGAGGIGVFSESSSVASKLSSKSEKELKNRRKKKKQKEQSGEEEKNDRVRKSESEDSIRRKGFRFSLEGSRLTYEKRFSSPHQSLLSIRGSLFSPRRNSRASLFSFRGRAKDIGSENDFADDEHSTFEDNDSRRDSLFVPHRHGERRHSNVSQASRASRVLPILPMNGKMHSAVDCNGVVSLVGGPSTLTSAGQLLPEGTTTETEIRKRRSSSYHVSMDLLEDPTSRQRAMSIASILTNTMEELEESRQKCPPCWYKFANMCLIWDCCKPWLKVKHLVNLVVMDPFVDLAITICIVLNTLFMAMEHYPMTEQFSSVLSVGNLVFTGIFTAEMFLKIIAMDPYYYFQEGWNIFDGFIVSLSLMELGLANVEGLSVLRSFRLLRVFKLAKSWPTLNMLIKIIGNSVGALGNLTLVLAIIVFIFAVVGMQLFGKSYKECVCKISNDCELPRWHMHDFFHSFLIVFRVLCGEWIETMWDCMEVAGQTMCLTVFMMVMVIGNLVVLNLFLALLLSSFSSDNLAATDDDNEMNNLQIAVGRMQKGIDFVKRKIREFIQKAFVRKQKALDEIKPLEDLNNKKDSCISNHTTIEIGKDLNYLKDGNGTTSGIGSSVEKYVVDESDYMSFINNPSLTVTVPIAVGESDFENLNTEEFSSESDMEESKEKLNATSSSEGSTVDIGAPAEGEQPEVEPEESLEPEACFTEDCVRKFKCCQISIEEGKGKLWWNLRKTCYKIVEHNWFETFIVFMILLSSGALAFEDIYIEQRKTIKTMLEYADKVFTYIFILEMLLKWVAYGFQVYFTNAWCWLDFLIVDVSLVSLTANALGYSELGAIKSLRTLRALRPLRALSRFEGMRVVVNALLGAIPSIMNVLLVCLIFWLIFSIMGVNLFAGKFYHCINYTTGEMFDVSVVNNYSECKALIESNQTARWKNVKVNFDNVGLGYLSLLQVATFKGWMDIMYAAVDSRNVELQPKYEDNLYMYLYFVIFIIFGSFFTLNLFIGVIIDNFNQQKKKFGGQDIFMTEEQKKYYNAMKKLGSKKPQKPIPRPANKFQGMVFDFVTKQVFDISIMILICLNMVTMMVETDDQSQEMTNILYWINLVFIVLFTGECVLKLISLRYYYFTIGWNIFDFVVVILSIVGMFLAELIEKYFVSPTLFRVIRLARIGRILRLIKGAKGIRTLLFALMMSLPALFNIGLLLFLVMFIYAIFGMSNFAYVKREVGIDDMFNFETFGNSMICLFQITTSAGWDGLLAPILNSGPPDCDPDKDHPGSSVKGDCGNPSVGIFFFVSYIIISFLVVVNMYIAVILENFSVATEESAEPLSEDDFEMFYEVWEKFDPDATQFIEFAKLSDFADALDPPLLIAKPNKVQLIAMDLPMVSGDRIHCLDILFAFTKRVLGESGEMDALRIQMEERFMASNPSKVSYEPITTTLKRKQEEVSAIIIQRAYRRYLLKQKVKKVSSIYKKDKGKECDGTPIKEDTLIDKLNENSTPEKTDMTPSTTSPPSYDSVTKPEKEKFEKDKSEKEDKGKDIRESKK

mice = test: Acute toxicity, minimal motor impairment; assay type: in vivo; details: i.p.
[3] = system: maximal electroshock seizure (generalized tonic-clonic seizures); test: MES test, oral administration to rats; assay type: in vivo; details: 30 mg/kg
human Nav1.2 [4] = biological target: T1, human Nav1.2; details: cited from earlier work

## Clc1cccc(-c2nc(-c3ccccc3)c[nH]2)c1 [Compound 12]
[1]
  protection in the MES test in mice at 100 mg/kg (in words): Some protection

## COc1ccc(-c2nc(-c3ccccc3)c[nH]2)cc1 [Compound 13]
Human Nav1.2 [2]
  action on hNaV1.2 current at 10 μM: 30.1%

## O=[N+]([O-])c1ccc(-c2nc(-c3ccccc3)c[nH]2)cc1 [Compound 15]
[1]
  protection in the MES test in mice at 100 mg/kg (in words): Some protection

## O=[N+]([O-])c1cccc(-c2nc(-c3ccccc3)c[nH]2)c1 [Compound 16]
[1]
  MES protection, animals protected/animals tested at 0.5 h: 2/3

## FC(F)(F)c1ccc(-c2nc(-c3ccccc3)c[nH]2)cc1 [Compound 17]
Human Nav1.2 [2]
  action on hNaV1.2 current at 10 μM: 22.7%
Human Nav1.2 [2]; ratio of IC50 values
  fold greater potency for hNav1.2 than phenytoin: 4 fold
mice
  dose up to which no toxicity was observed: 500 mg/kg
[1]; 0.25 h, text says rats, Supplementary Data Table 1
  MES protection, animals protected/animals tested at 0.25 h: 2/3

## Clc1ccc(-c2c[nH]c(-c3ccccc3)n2)cc1 [Compound 19]
[3]
  ability to prevent seizure spread in the MES test after oral administration (in words): not able to prevent seizure spread
[1]
  MES protection, animals protected/animals tested at 0.5 h: 3/3

## Clc1cccc(-c2c[nH]c(-c3ccccc3)n2)c1 [Compound 20]
Human Nav1.2 [2]
  action on hNaV1.2 current at 10 μM: 16.8%
mice
  dose up to which no toxicity was observed: 500 mg/kg
[1]
  MES protection, animals protected/animals tested at 0.5 h: 3/3

## COc1ccc(-c2c[nH]c(-c3ccccc3)n2)cc1 [Compound 21]
[3]
  ability to prevent seizure spread in the MES test after oral administration (in words): not able to prevent seizure spread

## COc1cccc(-c2c[nH]c(-c3ccccc3)n2)c1 [Compound 22]
[3]
  ability to prevent seizure spread in the MES test after oral administration (in words): not able to prevent seizure spread

## O=[N+]([O-])c1ccc(-c2c[nH]c(-c3ccccc3)n2)cc1 [Compound 23]
[1]
  protection in the MES test in mice at 100 mg/kg (in words): Some protection

## O=[N+]([O-])c1cccc(-c2c[nH]c(-c3ccccc3)n2)c1 [Compound 24]
[3]
  ability to prevent seizure spread in the MES test after oral administration (in words): not able to prevent seizure spread
[1]
  MES protection, animals protected/animals tested at 0.5 h: 2/3

## FC(F)(F)c1ccc(-c2c[nH]c(-c3ccccc3)n2)cc1 [Compound 25]
[1]
  protection in the MES test in mice at 100 mg/kg (in words): Some protection

## FC(F)(F)c1cccc(-c2c[nH]c(-c3ccccc3)n2)c1 [Compound 26]
[1]
  protection in the MES test in mice at 100 mg/kg (in words): Some protection

## FC(F)(F)c1cccc(-c2c[nH]c(-c3cccc(C(F)(F)F)c3)n2)c1 [Compound 29]
[1]
  protection in the MES test in mice at 100 mg/kg (in words): Some protection

## O=C1NC(=O)C(c2ccccc2)(c2ccccc2)N1 [Phenytoin]
Human Nav1.2 [4]
  action on hNaV1.2 current at 10 μM: 10.6%

From article PMC2970651 (Bioorganic & medicinal chemistry, 2010)
